The values below come from patent US10441657B2, “Methods and compositions for self-regulated release of active pharmaceutical ingredient” (Acura Pharmaceuticals, Inc., priority 2012, dated 2019).

Series [1] in a line: pH of dissolution vessel with calcium carbonate antacid tablets in HCl. It counts as physicochemical. The note with it: in 10 minutes (FIG. 1). As for the experimental part:
Two dissolution vessels were prepared: one vessel contained 25 mEq of HCl and a single commercially available calcium carbonate antacid tablet (Tums®), and the other vessel contained 25 mEq of HCl and five calcium carbonate antacid tablets. […] Calcium carbonate has shown a capability as a pH modifier and pH dependent solubility.

The conditions of series [2]: earlier experimentation. On the procedure: Thus, sodium bicarbonate was added to a prototype formulation primarily to control rapid pH elevation and calcium carbonate for a more sustained control of elevated pH.

As for `O=C([O-])[O-].[Ca+2]` [calcium carbonate], the “pH change seen for calcium carbonate” value in series [1] was found to be 5.
Regarding `O=C([O-])O.[Na+]` [sodium bicarbonate], in series [2], the “time to raise acid media from pH 1 to pH 6” value is listed as “less than 2 minutes”.
